Patent US11369653B2, “Traditional Chinese medicine composition for treating cardiovascular and cerebrovascular disease, preparation method therefor and use thereof” (priority 2018, dated 2022)

Tests used:
[1] = system: thrombin induced platelet aggregation in rats; assay: Thrombin induced rat platelet aggregation after 15 days gavage; format: in vivo; details: SD rats, 6.75 mg/kg by gavage for 15 days
From the text: Platelet aggregation rate is a detection index of platelet function. The higher the platelet aggregation rate, the greater the possibility of thrombosis. In arteriosclerosis, coronary heart disease, cerebral infarction, hypertension, diabetes and other thrombotic diseases, platelet aggregation rate is often increased. […] Therefore, the determination of platelet aggregation rate can be used to observe the curative effect and screen drugs. In this study, thrombin induced rat platelet aggregation model was used to evaluate the inhibitory effect of the traditional Chinese medicine composition on platelet aggregation. […]
After the last administration, 3% Pentobarbital Sodium was injected intraperitoneally for anesthesia (40 mg/kg). […] After 10 minutes of centrifugation at 800 rpm, the upper platelet rich plasma (PRP) was aspirated and the number of platelets was counted. […]
A small magnetic rod and 300 μl PRP were added into a square cup, which was preheated for 5 minutes in a constant temperature hole, and 300 μl PPP was added into another square cup. […] The maximum platelet aggregation rate was measured, wherein 3-4 parallel tests were performed for each blood sample and the average value was taken.

[2] = system: arteriovenous bypass thrombosis in rats; assay: Arteriovenous bypass thrombosis in rats; format: in vivo; details: SD rats, 6.75 mg/kg by gavage for 15 days
Protocol: After 5 days of adaptive feeding, the animals were randomly divided into blank control group, positive control group (Plavix group, 6.75 mg/kg), and four test substance groups (100, 200, 400 and 800 mg/kg), with 20 rats in each group. The animals were administered by gavage for 15 consecutive days, once a day.
After the last administration, 3% Pentobarbital Sodium was injected intraperitoneally for anesthesia (40 mg/kg). The right common carotid artery and left external jugular vein were separated. A 6 cm long medical surgical suture (No. 0) was placed in the middle of a polyethylene tube, which was filled with normal saline and inserted into the right common carotid artery and the left external jugular vein respectively to form an arteriovenous vascular loop. After 15 minutes, the blood flow was cut off, and the suture was taken out and weighed.
In this experiment, the classical rat arteriovenous bypass was used to form the bypass arteriovenous blood flow. When the platelets in the arterial blood flow contact the rough surface of the suture, they adhere to the suture, and the platelet aggregation forms platelet thrombosis around the surface of the suture. When platelet adhesion and aggregation function is inhibited, the weight of thrombosis become smaller. Therefore, the adhesion and aggregation function of platelets can be measured by thrombus weight.

COC(=O)[C@H](c1ccccc1Cl)N1CCc2sccc2C1 [Plavix, Clopidogrel Hydrogen Sulphate]
Maximum platelet aggregation rate [1]: 35.8±29.7% | Net weight of suture [2]: 20.2 ± 4.8 mg
